Key:
Cholinesterase = Cholinesterase (Homo sapiens, UniProt P06276); assay: Inhibition of human plasma BChE by Ellman's method
Acetylcholinesterase = Acetylcholinesterase (Homo sapiens, UniProt P22303); assay: Inhibition of human recombinant AChE by Ellman's method
Chain of Acetylcholinesterase (P22303 whole entry): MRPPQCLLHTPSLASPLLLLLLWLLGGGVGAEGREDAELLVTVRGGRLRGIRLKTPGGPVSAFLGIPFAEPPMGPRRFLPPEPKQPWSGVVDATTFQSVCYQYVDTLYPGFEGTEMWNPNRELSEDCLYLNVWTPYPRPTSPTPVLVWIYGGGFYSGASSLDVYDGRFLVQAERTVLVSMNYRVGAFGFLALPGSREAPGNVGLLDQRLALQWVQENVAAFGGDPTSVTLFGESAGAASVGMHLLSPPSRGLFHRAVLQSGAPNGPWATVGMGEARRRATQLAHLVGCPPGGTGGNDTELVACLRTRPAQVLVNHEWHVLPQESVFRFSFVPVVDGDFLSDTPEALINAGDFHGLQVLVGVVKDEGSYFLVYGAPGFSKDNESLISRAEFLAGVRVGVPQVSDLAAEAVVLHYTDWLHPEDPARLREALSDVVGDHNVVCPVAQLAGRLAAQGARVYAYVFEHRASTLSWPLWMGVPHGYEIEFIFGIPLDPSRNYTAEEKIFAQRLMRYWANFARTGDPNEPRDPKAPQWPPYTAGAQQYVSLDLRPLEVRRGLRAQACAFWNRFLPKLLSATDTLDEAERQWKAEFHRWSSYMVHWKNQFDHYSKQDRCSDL

Chain of Cholinesterase (P06276 whole entry): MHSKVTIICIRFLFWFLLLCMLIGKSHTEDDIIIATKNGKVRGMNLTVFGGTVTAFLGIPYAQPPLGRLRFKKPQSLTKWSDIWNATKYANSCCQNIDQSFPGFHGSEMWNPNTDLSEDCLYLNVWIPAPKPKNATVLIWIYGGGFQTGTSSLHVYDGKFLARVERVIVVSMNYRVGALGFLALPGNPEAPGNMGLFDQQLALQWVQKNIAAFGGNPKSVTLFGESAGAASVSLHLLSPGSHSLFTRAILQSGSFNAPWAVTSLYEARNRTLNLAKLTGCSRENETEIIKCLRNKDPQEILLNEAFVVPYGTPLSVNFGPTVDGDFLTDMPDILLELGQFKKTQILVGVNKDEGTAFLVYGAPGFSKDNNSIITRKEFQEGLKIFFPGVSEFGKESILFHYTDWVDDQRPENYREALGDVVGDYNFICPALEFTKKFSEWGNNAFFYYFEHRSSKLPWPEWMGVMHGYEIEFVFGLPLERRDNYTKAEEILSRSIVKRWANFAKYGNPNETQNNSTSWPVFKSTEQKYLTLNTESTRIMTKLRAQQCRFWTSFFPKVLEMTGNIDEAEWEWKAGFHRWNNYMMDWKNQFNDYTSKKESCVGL

SMILES	Ki (Cholinesterase) [µM]	Ki (Acetylcholinesterase) [µM]
O=c1cc(-c2ccc(O)c(O)c2)oc2cc(O)cc(O)c12 [2-(3,4-dihydroxyphenyl)-5,7-dihydroxy-4H-chromen-4-one]	166	65.8
O=c1cc(-c2ccc(O)cc2)oc2cc(O)cc(O)c12 [Naringenin, 18]	37.4	122
O=c1c(O)c(-c2ccc(O)cc2)oc2cc(O)cc(O)c12	43.1	92.8
O=c1c(O)c(-c2ccc(O)c(O)c2)oc2cc(O)ccc12 [2-(3,4-dihydroxyphenyl)-3,7-dihydroxy-chromen-4-one]	90	100
O=c1c(O)c(-c2cc(O)c(O)c(O)c2)oc2cc(O)cc(O)c12	71	37.8
O=c1c(O)c(-c2ccccc2)oc2cc(O)cc(O)c12 [norizalpinin]	6.9	85.6
C[C@@H]1O[C@@H](OC[C@H]2O[C@@H](Oc3c(-c4ccc(O)c(O)c4)oc4cc(O)cc(O)c4c3=O)[C@H](O)[C@@H](O)[C@@H]2O)[C@H](O)[C@H](O)[C@H]1O [3-Rhamnoglucosylquercetin]	501	> 300
O=c1c(O)c(-c2ccc(O)c(O)c2)oc2cc(O)cc(O)c12 [2-(3,4-dihydroxyphenyl)-3,5,7-trihydroxy-chromone;hydrate]	68	38.3

— BindingDB's records for doi:10.1016/j.ejmech.2009.09.041 (Institute For Medical Research and Occupational Health, 2010)
